Columns and labels:
PARP-3 = target: T1, PARP-3 (Homo sapiens, UniProt Q9Y6F1); experiment: DSF, full-length PARP-3 with or without DNA; assay type: binding; settings: for TM: Figure 3c, BAD 1250 μM, in °C (unit assumed)
T1 construct: PARP-3 (isoform b, residues 1–533) was cloned in pDEST17 vector; made in house
T1 sequence (Q9Y6F1 1-533): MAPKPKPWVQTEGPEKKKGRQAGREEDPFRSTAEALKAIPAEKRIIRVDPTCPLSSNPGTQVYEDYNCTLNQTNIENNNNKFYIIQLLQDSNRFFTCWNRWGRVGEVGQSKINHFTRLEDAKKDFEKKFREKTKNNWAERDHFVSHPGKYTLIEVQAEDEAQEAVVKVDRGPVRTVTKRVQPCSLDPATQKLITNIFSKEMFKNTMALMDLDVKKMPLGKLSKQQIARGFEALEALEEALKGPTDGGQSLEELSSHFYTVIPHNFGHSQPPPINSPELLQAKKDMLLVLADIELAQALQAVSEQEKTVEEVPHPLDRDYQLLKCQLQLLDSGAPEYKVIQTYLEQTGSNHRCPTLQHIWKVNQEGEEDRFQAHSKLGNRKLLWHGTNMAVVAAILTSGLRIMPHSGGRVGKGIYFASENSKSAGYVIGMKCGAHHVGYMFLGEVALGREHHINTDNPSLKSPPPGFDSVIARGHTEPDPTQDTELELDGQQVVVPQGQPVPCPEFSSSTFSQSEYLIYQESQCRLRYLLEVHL
Method: (§1) DSF experiments were performed as described, [13] using 5 µM protein, 2.5 µM DNA when indicated and various concentrations of compound (BAD, carba-NAD^+, benzamide, and ADP-ribose) as indicated in Fig. 1 and Fig. 3. Experiments were performed on a Roche LightCycler 480 RT-PCR. Reactions including DNA were performed with a 26- or 28-base pair (bp) unphosphorylated oligonucleotide for PARP-1, a 28-bp 5´-phosphorylated (5´P) oligonucleotide for PARP-2, and a 47-bp oligonucleotide including a central 5´P nick for PARP-3^13 in the following buffer: 25 mM Hepes pH 8.0, 150 mM NaCl, 1 mM EDTA, and 0.1 mM TCEP. Reactions with PARP-3 were conducted at lower ionic strength to allow binding to DNA as described (25 mM Hepes pH 8.0, 50 mM NaCl, 1 mM EDTA and 0.1 mM TCEP)[13]. ΔTM values were calculated by subtracting the TM determined for the protein in the absence of compound from the TM determined in the presence of compound. Experiments were performed in triplicate and a Boltzmann sigmoid was fit to the data to determine the TM values (KaleidaGraph).

full-length PARP-1 WT [1] = target: T2, full-length PARP-1 WT (Homo sapiens, UniProt P09874); experiment: One-dimensional 1H NMR monitoring BAD protons; assay type: binding
T2 construct: Full-length PARP-1 WT (residues 1–1014) was cloned in pET28 vector; made in house; host or cells: E. coli
Method: Full-length PARP-1 WT and a dumbbell DNA containing a central 1-nucleotide gap (5′-[…]-3′)[7], were dialyzed against a modified PBS buffer (222 mM NaCl, 2.7 mM KCl, 200 μM DTT, 10 mM sodium phosphate, pH 7.4). An aliquot of the dialysis PBS buffer was then lyophylized and resuspended in deuterated water (D2O). The NMR samples were prepared by diluting the protein (40 μM final), DNA (40 μM final), and BAD (20 μM final) in the deuterated buffer such that all samples contained 85% D2O final. The samples were incubated 30 min at RT prior to collecting the NMR spectra. ^1H (700.303 MHz) NMR spectra were acquired with a Bruker Avance II 700 spectrometer equipped with a 16.4 T narrowbore magnet and a double-resonance (^1 H/^13 C) cryoprobe. All samples were run using 3 mm NMR tubes (180 µL). 1D experiments were acquired with excitation sculpting to suppress residual water signal. The use of D2O as the primary solvent (85%) removed the signals from amide hydrogens in the region of interest (7–9 ppm), however a low-power T1p filter (70 ms) was necessary after the 90-degree excitation pulse to reduce signals from the non-exchangeable hydrogens arising from the large, slowly tumbling protein and DNA.

PARP-1 = target: T3, PARP-1 (Homo sapiens, UniProt P09874); experiment: SDS-PAGE PARP-1 activity assay (DNA-dependent automodification); assay type: biochemical; settings: 1 μM DNA, 1 μM protein, 50 μM NAD+; concentration series
T3 construct: Full-length PARP-1 WT (residues 1–1014) was cloned in pET28 vector; made in house; host or cells: E. coli
Method: The SDS-PAGE activity assay was performed as described[28] using 1 µM protein, 1 μM DNA (18 bp oligonucleotide), 50 µM NAD^+, and various concentrations of BAD and carba-NAD^+ as indicated. Reactions were incubated for 5 min before quenching with SDS-PAGE loading buffer.

PARP-1 D45A = target: T4, PARP-1 D45A (Homo sapiens, UniProt P09874, D45A); experiment: DSF, full-length PARP-1 D45A with or without DNA; assay type: binding; settings: for TM: Figure 3b, BAD 1250 μM, in °C (unit assumed)
T4 construct: Full-length PARP-1 WT (residues 1–1014) was cloned in pET28 vector and site-directed mutagenesis was performed; made in house; host or cells: E. coli
Method: as §1

Tankyrase 1 CAT = target: T5, Tankyrase 1 CAT (Homo sapiens, UniProt O95271); experiment: DSF, Tankyrase 1 CAT; assay type: binding
T5 construct: Tankyrase 1 CAT (residues 1093–1327) was cloned in pET24; made in house
T5 sequence (O95271 1093-1327): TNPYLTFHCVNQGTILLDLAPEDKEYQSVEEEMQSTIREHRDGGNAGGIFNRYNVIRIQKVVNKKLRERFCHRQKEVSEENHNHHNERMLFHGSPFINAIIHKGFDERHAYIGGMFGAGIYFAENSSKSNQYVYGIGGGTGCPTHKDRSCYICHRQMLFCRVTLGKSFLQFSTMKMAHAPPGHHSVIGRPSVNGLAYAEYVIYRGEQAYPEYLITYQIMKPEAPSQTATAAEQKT
Method: as §1

PARP-2 = target: T6, PARP-2 (Homo sapiens, UniProt Q9UGN5); experiment: DSF, full-length PARP-2 with or without DNA; assay type: binding; settings: for TM: Figure 3c, BAD 1250 μM, in °C (unit assumed)
T6 construct: PARP-2 (isoform 2, residues 1–570) was cloned in pET28 vector; made in house
Method: as §1

full-length PARP-1 WT [2] = target: T2, full-length PARP-1 WT; experiment: DSF, full-length PARP-1 WT with or without DNA; assay type: binding; settings: BAD 1250 μM; for TM: in °C (unit assumed)
Method: as §1

T6 sequence (Q9UGN5 1-570 isoform Q9UGN5-2): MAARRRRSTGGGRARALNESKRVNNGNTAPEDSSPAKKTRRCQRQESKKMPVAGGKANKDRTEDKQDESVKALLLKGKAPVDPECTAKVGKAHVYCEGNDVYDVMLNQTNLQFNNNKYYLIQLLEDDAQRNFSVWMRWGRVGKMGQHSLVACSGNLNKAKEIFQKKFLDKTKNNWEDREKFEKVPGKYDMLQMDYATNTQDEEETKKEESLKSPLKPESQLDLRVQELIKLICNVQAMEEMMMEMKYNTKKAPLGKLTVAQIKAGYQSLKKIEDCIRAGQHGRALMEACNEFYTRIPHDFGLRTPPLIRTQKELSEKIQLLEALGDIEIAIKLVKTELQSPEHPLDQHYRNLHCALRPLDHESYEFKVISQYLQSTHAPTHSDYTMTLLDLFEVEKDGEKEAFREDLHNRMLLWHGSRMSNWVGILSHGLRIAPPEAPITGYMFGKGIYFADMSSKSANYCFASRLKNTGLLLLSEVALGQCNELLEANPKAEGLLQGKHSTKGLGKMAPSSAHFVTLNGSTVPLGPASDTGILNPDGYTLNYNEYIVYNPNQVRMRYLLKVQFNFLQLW
T4 sequence (P09874 whole entry D45A, the tested form may be a part): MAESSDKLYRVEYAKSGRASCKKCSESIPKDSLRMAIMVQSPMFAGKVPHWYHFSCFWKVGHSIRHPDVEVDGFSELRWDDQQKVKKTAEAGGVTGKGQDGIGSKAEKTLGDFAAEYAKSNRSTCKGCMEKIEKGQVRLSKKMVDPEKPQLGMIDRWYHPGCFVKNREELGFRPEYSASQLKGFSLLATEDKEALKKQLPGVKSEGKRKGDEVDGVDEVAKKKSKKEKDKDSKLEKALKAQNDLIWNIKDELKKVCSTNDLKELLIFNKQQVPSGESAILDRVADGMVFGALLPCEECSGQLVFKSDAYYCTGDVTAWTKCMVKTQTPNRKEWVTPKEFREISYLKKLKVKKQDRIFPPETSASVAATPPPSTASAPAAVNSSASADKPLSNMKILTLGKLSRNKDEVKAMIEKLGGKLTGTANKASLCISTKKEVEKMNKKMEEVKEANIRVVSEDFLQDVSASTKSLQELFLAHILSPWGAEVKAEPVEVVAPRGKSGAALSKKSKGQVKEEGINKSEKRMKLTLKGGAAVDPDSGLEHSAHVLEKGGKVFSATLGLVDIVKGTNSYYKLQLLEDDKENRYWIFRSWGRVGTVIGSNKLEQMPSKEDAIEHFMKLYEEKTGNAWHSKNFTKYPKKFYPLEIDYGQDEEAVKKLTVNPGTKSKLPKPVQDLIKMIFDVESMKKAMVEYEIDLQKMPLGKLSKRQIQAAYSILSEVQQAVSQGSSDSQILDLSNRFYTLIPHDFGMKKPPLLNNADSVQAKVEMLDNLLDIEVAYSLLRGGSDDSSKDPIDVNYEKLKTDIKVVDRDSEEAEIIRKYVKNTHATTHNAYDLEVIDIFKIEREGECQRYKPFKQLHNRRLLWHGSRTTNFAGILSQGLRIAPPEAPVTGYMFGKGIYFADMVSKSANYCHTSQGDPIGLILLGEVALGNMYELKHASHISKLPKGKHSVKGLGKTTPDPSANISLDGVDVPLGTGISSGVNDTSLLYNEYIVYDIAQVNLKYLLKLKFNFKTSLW
T2 sequence (P09874 whole entry, the tested form may be a part): as the sequence (P09874 whole entry D45A, the tested form may be a part) above, with A45D counted along it
T3 sequence (P09874 whole entry, the tested form may be a part): as the sequence (P09874 whole entry D45A, the tested form may be a part) above, with A45D counted along it

In the case of `NC(=O)c1cccc(C2OC(COP(=O)(O)OP(=O)(O)OCC3OC(n4cnc5c(N)ncnc54)C(O)C3O)C(O)C2O)c1` (stereo not drawn) [BAD, benzamide adenine dinucleotide], the TM (PARP-3; PARP-3, no DNA, TM without BAD 35.81) is reported as 35.54, the TM (PARP-3; PARP-3 with DNA (2.5 μM, 47-bp duplex with central 5'P nick), TM without BAD 39.70) is reported as 41.02 and the “evidence of BAD binding in the DSF assay” value (PARP-3; PARP-3, with or without DNA bearing 5'P) is reported as “only showed evidence of BAD binding in the presence of activating DNA”. For the same compound, the “level of signal reduction of BAD spectrum peaks” value (full-length PARP-1 WT [1]; BAD 20 μM with PARP-1 40 μM and DNA 40 μM (dumbbell DNA, central 1 nt-gap)) was ~ 95%, the “BAD spectrum compared with BAD alone” value (full-length PARP-1 WT [1]; BAD 20 μM with PARP-1 40 µM, no DNA) was “essentially identical spectrum” and the “concentration at which inhibition of DNA-dependent PARP-1 automodification activity starts” value (PARP-1) was 50 µM. The “TM shift in the presence of BAD and DNA” value (PARP-1 D45A; D45A (Zn1–WGR interface mutation), relative to WT) was “substantial reduction in TM shift”, the TM (PARP-1 D45A; D45A with DNA (2.5 μM), TM without BAD 46.77) was 46.61 and the TM (PARP-1 D45A; D45A, no DNA, TM without BAD 46.20) was 46.68. For the same compound, the “binding to BAD based on the DSF analysis” value (Tankyrase 1 CAT; CAT of tankyrase 1 (no HD)) was “capable of binding”, the TM (Tankyrase 1 CAT; Figure 3d, TNK CAT 5 μM, BAD 4 mM, TM without BAD 53.71, in °C (unit assumed)) was 57.42 and the TM (PARP-2; PARP-2, no DNA, TM without BAD 47.71) was 47.47. The TM (PARP-2; PARP-2 with DNA (2.5 μM, 28-bp duplex 5'P), TM without BAD 45.44) was 47.28, the “evidence of BAD binding in the DSF assay” value (PARP-2; PARP-2, with or without DNA bearing 5'P) was “only showed evidence of BAD binding in the presence of activating DNA” and the “increase in the TM of full-length PARP-1 owing to BAD” value (full-length PARP-1 WT [2]; with or without DNA (2.5 μM)) was “observed only with DNA present”. It also gave a TM (full-length PARP-1 WT [2]; Figure 3a, WT with DNA (2.5 μM, 26-bp duplex), TM without BAD 44.35) of 47.65, a TM (full-length PARP-1 WT [2]; Figure 3a, WT, no DNA, TM without BAD 48.17) of 48.19 and a TM (full-length PARP-1 WT [2]; Figure 3b, WT with DNA (2.5 μM, 26-bp duplex), TM without BAD 42.85) of 45.99. The TM (full-length PARP-1 WT [2]; Figure 3b, WT, no DNA, TM without BAD 47.41) was 47.09, the TM (full-length PARP-1 WT [2]; Figure 3c, PARP-1, no DNA, TM without BAD 47.93) was 48.15 and the TM (full-length PARP-1 WT [2]; Figure 3c, PARP-1 with DNA (2.5 μM, 28-bp duplex), TM without BAD 44.45) was 48.03.
